Earlier results on one compound are cited in patent US20160289773A1 (priority 2013, published 2016).

Data set [1] relates to Haemonchus contortus. The note with it: in vivo.
Data set [2] has as its system Haemonchus contortus. The following applies: Zaire isolate.

Several values for one entry are separate records, joined by “and”; a condition that tells them apart may be missing. Identical values can stand only once.

Turning to `c1ccc([C@H]2CN3CCSC3=N2)cc1` [Levamisole, levamisole], the Levamisole efficacy with Haemonchus contortus [1] was 100% and > 99%. Also, the “levamisole susceptibility status of isolate” value with Haemonchus contortus [2] is “susceptible”.
